What is called IC50 is the concentration at which inhibition is half-maximal.

human, KCNT1, sequence (Q5JUK3 whole entry): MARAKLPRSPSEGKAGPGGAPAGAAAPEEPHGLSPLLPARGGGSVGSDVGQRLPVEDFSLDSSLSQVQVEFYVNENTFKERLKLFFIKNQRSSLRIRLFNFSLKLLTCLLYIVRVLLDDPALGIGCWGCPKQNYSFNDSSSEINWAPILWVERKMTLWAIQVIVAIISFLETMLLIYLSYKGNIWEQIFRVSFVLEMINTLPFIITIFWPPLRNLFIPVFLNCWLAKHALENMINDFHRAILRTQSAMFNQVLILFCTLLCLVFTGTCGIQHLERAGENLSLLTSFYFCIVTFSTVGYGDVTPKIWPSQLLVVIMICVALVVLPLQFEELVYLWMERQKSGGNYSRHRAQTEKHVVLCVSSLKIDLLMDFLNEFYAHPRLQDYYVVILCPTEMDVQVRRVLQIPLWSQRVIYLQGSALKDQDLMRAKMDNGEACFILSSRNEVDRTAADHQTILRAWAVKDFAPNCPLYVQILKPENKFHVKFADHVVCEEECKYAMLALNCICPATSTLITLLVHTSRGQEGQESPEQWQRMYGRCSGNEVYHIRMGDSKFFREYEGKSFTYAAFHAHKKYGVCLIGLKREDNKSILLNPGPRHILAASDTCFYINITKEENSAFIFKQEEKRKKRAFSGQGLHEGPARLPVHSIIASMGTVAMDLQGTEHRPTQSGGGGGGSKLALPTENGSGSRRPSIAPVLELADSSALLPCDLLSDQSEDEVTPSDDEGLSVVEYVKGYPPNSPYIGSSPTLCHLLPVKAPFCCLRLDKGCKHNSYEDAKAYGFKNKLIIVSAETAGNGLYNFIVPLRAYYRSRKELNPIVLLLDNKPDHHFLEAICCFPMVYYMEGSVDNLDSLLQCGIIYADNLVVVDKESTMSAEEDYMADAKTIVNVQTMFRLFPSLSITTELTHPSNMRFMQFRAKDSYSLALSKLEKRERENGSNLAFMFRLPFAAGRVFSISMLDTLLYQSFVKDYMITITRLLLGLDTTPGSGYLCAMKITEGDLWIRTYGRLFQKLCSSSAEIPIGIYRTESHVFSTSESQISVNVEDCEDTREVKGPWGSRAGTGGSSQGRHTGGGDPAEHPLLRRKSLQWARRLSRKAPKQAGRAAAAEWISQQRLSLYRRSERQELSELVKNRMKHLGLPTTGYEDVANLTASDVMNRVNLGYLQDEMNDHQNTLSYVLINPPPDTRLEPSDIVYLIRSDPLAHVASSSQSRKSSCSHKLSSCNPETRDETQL

The target in the assay is human, KCNT1 (Homo sapiens (Human), UniProt Q5JUK3). The assay is described as follows: FLIPR Tl/K Flux Assay. Format: cell-based. As to conditions: HEK293 cells stably expressing human KCNT1; Tl+ flux stimulated with EC80 of agonist Loxapine. A digest of the protocol:
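HEK293 cells stably expressing human KCNT1 were loaded with FLIPR potassium dye in HEPES/HBSS pH 7.4 with 5 mM probenecid, 1 h at 25 °C, then given test compound for 30 min at 25 °C. Tl+ flux was triggered with chloride-free buffer containing Tl+ and EC80 loxapine and read 160 s. IC50 came from Hill fits of % inhibition.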
`Cn1nc(C(F)F)cc1C(=O)N[C@H]1CCCn2nc(-c3ccnc(C(F)(F)F)c3)cc21` [Compound I-348a]: the concentration for half-maximal inhibition (IC50) is less than 250 nM. Consider “(S)-6-(Trifluoromethyl)-N-(2-(2-(trifluoromethyl)pyridin-4-yl)-5,6-dihydro-4H-pyrrolo[1,2-b]pyrazol-4-yl)pyrazine-2-carboxamide [Compound I-572a]”, for which the concentration for half-maximal inhibition (IC50) was less than 250 nM. `Cc1cc(C(=O)N[C@H]2CCCc3oc(-c4ccnc(C5CC5)c4)nc32)cc(C(F)(F)F)c1` [Compound I-242a, (S)-N-(2-(2-Cyclopropylpyridin-4-yl)-4,5,6,7-tetrahydrobenzo[d]oxazol-4-yl)-3-methyl-5-(trifluoromethyl)benzamide]: the 50% inhibitory concentration (IC50) was less than 250 nM. `CC(C)c1cc(C(=O)N[C@H]2CCCn3nc(-c4ccnc(C(F)(F)F)c4)cc32)n(C)n1` [Compound I-350a] came in with a half-maximal inhibitory concentration (IC50) of less than 250 nM. For `Cn1nc(C(F)(F)F)cc1C(=O)N[C@H]1CCCc2c1nc(-c1ccnc(C(F)(F)F)c1)n2C` [Compound I-247a, (S)-1-Methyl-N-(1-methyl-2-(2-(trifluoromethyl)pyridin-4-yl)-4,5,6,7-tetrahydro-1H-benzo[d]imidazol-4-yl)-3-(trifluoromethyl)-1H-pyrazole-5-carboxamide] the value was more than 1000 nM; for `COc1cc(C(=O)N[C@H]2CCn3nc(-c4cc(C(F)(F)F)ncc4F)cc32)ccn1` [Compound I-145a, (S)—N-(2-(5-Fluoro-2-(trifluoromethyl)pyridin-4-yl)-5,6-dihydro-4H-pyrrolo[1,2-b]pyrazol-4-yl)-2-methoxyisonicotinamide], less than 250 nM; for `N#Cc1cncc(C(=O)N[C@H]2CCCn3nc(-c4ccnc(C(F)(F)F)c4)cc32)n1` [Compound I-321a, (S)-6-Cyano-N-(2-(2-(trifluoromethyl)pyridin-4-yl)-4,5,6,7-tetrahydropyrazolo[1,5-a]pyridin-4-yl)pyrazine-2-carboxamide], less than 250 nM.

Take `N#Cc1cccc(C(=O)N[C@H]2CCCCc3nn(-c4ccnc(C5CC5)c4)cc32)c1` [Compound I-335a, (S)-3-Cyano-N-(2-(2-cyclopropylpyridin-4-yl)-2,4,5,6,7,8-hexahydrocyclohepta[c]pyrazol-4-yl)benzamide]: the IC50 was less than 250 nM.

On to `COc1cc(-c2nc3c(o2)[C@@H](NC(=O)c2cccc(C(F)(F)F)c2)CCC3)ccn1` [Compound I-168a, (S)-N-(2-(2-Methoxypyridin-4-yl)-4,5,6,7-tetrahydrobenzo[d]oxazol-7-yl)-3-(trifluoromethyl)benzamide], for which the IC50 is less than 250 nM.

As for `Cn1nc(C(F)(F)F)cc1C(=O)N[C@H]1CCCn2nc(-c3ccnc(OC(F)F)c3)cc21` [Compound I-378a], the IC50 was less than 250 nM. For `CCOc1cc(-n2cc3c(n2)CCCCC3NC(=O)c2cccc(C)c2)ccn1` (racemic) [Compound I-59, (rac)-N-(2-(2-Ethoxypyridin-4-yl)-2,4,5,6,7,8-hexahydrocyclohepta[c]pyrazol-4-yl)-3-methylbenzamide] the value was less than 250 nM; for `O=C(N[C@H]1CCCc2nc(-c3cc(C4CC4)ncc3F)oc21)c1cncc(C(F)(F)F)n1` [Compound I-156a], less than 250 nM; for `O=C(N[C@H]1CCCn2nc(-c3ccnc(C(F)(F)F)c3)nc21)c1cncc(C(F)(F)F)n1` [Compound I-215a, (S)-6-(Trifluoromethyl)-N-(2-(2-(trifluoromethyl)pyridin-4-yl)-5,6,7,8-tetrahydro-[1,2,4]triazolo[1,5-a]pyridin-8-yl)pyrazine-2-carboxamide], less than 250 nM. With `COc1cc(C(=O)N[C@H]2CCCc3cnc(-c4ccnc(C(F)(F)F)c4)cc32)ccn1` (single isomer, unassigned) [I-269*], the IC50 is more than 1000 nM. As for `O=C(NC1CCCc2nn(-c3ccnc(C(F)(F)F)c3)cc21)c1ccc(C(F)(F)F)cc1` (racemic) [Compound I-16, (rac)-4-(Trifluoromethyl)-N-(2-(2-(trifluoromethyl)pyridin-4-yl)-4,5,6,7-tetrahydro-2H-indazol-4-yl)benzamide], the half-inhibitory concentration (IC50) was less than 250 nM. On to `COc1cc(C(=O)N[C@@H]2CCCCn3nc(-c4cc(C(F)(F)F)ncc4F)cc32)ccn1` [Compound I-517b], for which the half-inhibitory concentration (IC50) fell in the range of 500 to 1000 nM. `CC(C)n1cnc(C(=O)N[C@H]2CCCn3nc(-c4ccnc(C(F)(F)F)c4)cc32)n1` [Compound I-412a] had an IC50 of more than 1000 nM. In turn, `N#Cc1cc(C(=O)N[C@H]2CCn3nc(-c4ccnc(C(F)(F)F)c4)cc32)ccc1F` [Compound I-266a, (S)-3-Cyano-4-fluoro-N-(2-(2-(trifluoromethyl)pyridin-4-yl)-5,6-dihydro-4H-pyrrolo[1,2-b]pyrazol-4-yl)benzamide] came in with an IC50 of less than 250 nM. In the case of `CC(C)(C)OC(=O)N[C@H]1CCc2nn(-c3ccnc(C(F)(F)F)c3)cc21` [Compound I-105a] it was less than 250 nM; in that of `O=C(N[C@H]1CCCc2nc(-c3ccnc(C(F)(F)F)c3)oc21)C12CC(C(F)(F)F)(C1)C2` [Compound I-515a], less than 250 nM. Regarding `CCOc1cc(-n2cc3c(n2)CCCC3NC(=O)c2ccc3ccccc3c2)ccn1` (racemic) [Compound I-30, (rac)-N-(2-(2-Ethoxypyridin-4-yl)-4,5,6,7-tetrahydro-2H-indazol-4-yl)-2-naphthamide], the 50% inhibitory concentration (IC50) lay in the range of 500 to 1000 nM. With `CCc1cc(C#N)cc(C(=O)N[C@H]2CCCCn3nc(-c4ccnc(C(F)(F)F)c4)cc32)c1` [Compound I-244a, (S)-3-Cyano-5-ethyl-N-(2-(2-(trifluoromethyl)pyridin-4-yl)-5,6,7,8-tetrahydro-4H-pyrazolo[1,5-a]azepin-4-yl)benzamide], the IC50 is less than 250 nM.

`Cn1nc(C(F)(F)F)cc1C(=O)N[C@@H]1CCCCc2nn(-c3ccnc(C4CC4)c3)cc21` [Compound I-56b] displayed an IC50 of 500 to 1000 nM.

With `Cn1nc(C(F)(F)F)cc1C(=O)N[C@H]1CCc2nn(-c3ccnc(C4CCC4)c3)cc21` [Compound I-72a], the 50% inhibitory concentration (IC50) was less than 250 nM. For the molecule `O=C(N[C@H]1CCCc2oc(-c3ccnc(C4CC4)c3)nc21)c1cncc(C(F)(F)F)n1` [Compound I-231a], the IC50 is less than 250 nM. On to `CCOc1cc(C(=O)N[C@H]2CCn3nc(-c4ccnc(C5CC5)c4)cc32)ccn1` [Compound I-541a, (S)-N-(2-(2-Cyclopropylpyridin-4-yl)-5,6-dihydro-4H-pyrrolo[1,2-b]pyrazol-4-yl)-2-ethoxyisonicotinamide], for which the 50% inhibitory concentration (IC50) was less than 250 nM. With `COc1cc(-c2cc3n(n2)CCC[C@@H]3NC(=O)c2cccc(C#N)c2)c(C)cn1` [Compound I-222a, (S)-3-Cyano-N-(2-(2-methoxy-5-methylpyridin-4-yl)-4,5,6,7-tetrahydropyrazolo[1,5-a]pyridin-4-yl)benzamide], the IC50 was less than 250 nM. In turn, `COc1cc(F)cc(C(=O)N[C@H]2CCCn3nc(-c4ccnc(C(F)(F)F)c4)cc32)c1` [Compound I-578a, (S)-3-Fluoro-5-methoxy-N-(2-(2-(trifluoromethyl)pyridin-4-yl)-4,5,6,7-tetrahydropyrazolo[1,5-a]pyridin-4-yl)benzamide] registered an IC50 of less than 250 nM. The molecule `CC(F)(F)c1cc(-c2cc3n(n2)CCC[C@@H]3NC(=O)c2ccnc(C(F)(F)F)c2)ccn1` [Compound I-500a, (S)-N-(2-(2-(1,1-Difluoroethyl)pyridin-4-yl)-4,5,6,7-tetrahydropyrazolo[1,5-a]pyridin-4-yl)-2-(trifluoromethyl)isonicotinamide] had an IC50 of less than 250 nM. With `Cn1nc(C(F)(F)F)cc1C(=O)N[C@H]1CCCn2nc(-c3nnc(C(F)(F)F)o3)cc21` [Compound I-316a, (S)-1-Methyl-3-(trifluoromethyl)-N-(2-(5-(trifluoromethyl)-1,3,4-oxadiazol-2-yl)-4,5,6,7-tetrahydropyrazolo[1,5-a]pyridin-4-yl)-1H-pyrazole-5-carboxamide], the 50% inhibitory concentration (IC50) is 500 to 1000 nM. The molecule `Cn1nc(C(F)(F)F)cc1C(=O)N[C@H]1CCn2nc(-c3ccnc(C4CC4)c3)cc21` [Compound I-68a] came in with a 50% inhibitory concentration (IC50) of less than 250 nM. On to `O=C(N[C@H]1CCCn2nc(-c3ccnc(C(F)(F)F)c3)cc21)c1cc(C(F)(F)F)nn1C1CC1` [Compound I-371a], for which the IC50 is less than 250 nM. For `COc1cc(-c2cc3n(n2)CC[C@@H]3NC(=O)c2cnc(C(F)(F)F)cn2)c(F)cn1` [Compound I-575a, (S)-N-(2-(5-Fluoro-2-methoxypyridin-4-yl)-5,6-dihydro-4H-pyrrolo[1,2-b]pyrazol-4-yl)-5-(trifluoromethyl)pyrazine-2-carboxamide] the value was less than 250 nM; for `CCOc1cc(-n2cc3c(n2)CCCC3NC(=O)c2ccccc2)ccn1` (centres unmarked) [Compound I-27], more than 1000 nM; for `Cn1nc(C(F)(F)F)cc1C(=O)N[C@H]1CCCc2nn(-c3ccnc(C(=O)O)c3)cc21` [Compound I-88a], more than 1000 nM.

For `CC(C)(C)CC(=O)N[C@@H]1CCc2nn(-c3ccnc(C(F)(F)F)c3)cc21` [Compound I-103b], the IC50 is more than 1000 nM. `Cc1cc(Cl)ccc1C(=O)N[C@H]1CCc2nn(-c3ccnc(C(F)(F)F)c3)cc21` [Compound I-95a]: the IC50 was less than 250 nM.

In turn, `Cc1cc(C(=O)N[C@H]2CCCn3nc(-c4ccnc(C(F)(F)F)c4)cc32)cc(C)n1` [Compound I-414a] showed an IC50 of less than 250 nM. For the molecule `Cc1cc(C(=O)N[C@H]2CCCn3nc(-c4ccnc(C(F)(F)F)c4)cc32)nc(C2CC2)n1` [Compound I-402a], the IC50 was less than 250 nM. Regarding `N#Cc1cccc(C(=O)N[C@H]2CCCCn3nc(-c4ccnc(C(F)(F)F)c4)cc32)c1` [Compound I-443a], the IC50 was less than 250 nM. In the case of `Cc1nn(C(F)(F)F)cc1C(=O)N[C@H]1CCCc2oc(-c3ccnc(C(F)(F)F)c3)nc21` [Compound I-557a, (S)-3-Methyl-1-(trifluoromethyl)-N-(2-(2-(trifluoromethyl)pyridin-4-yl)-4,5,6,7-tetrahydrobenzo[d]oxazol-4-yl)-1H-pyrazole-4-carboxamide] it was less than 250 nM.

The values above are taken from US20250313548A1 (Actio Biosciences, Inc., priority 2023, published 2025).
